# Measurements as given in patent US11827677B2, “Antimicrobial peptide ID13, preparation method and use thereof” (Feed Research Institute, Chinese Academy of Agricultural …, priority 2019, dated 2023).
# Values joined by “and” are separate entries in the source; they are usually repeats but may differ in a detail not shown here. Identical values can stand only once. Like-named read-outs stand apart in the source and are kept apart here. Bridge positions count the residues as written; N and C are the ends. Peptide text beside a SMILES is read from it.
# Columns and labels:
# [1] = system: Staphylococcus Epidermidis ATCC 12228; experiment: MIC by trace broth dilution method; assay type: cell-based
# Experimental: (§1) The minimum inhibition concentration (MIC) of ID13 against pathogens was measured using a trace broth dilution method. The freeze-dried powder of antimicrobial peptide ID13 obtained in Example 6 was used to prepare a solution of antimicrobial peptide ID13 with a concentration of 1280 μg/mL and a solution of vancomycin, respectively with sterile normal saline, and diluted with a two-fold ratio to a final concentration of 1.25 μg/mL. The antimicrobial peptide ID13 solutions and vancomycin solutions of different concentrations were added to a sterile 96-well cell culture plate, with 10 μL per well, three parallels for each sample, and the same amount (10 μL) of sterile saline was used as a negative control, to prepare MIC plates. Strains were cultured in MH liquid medium with shaking at 37° C. until its OD600 nm=0.4 and diluted to 1×10^5 CFU/ml. 90 μL of cell suspension was added into each well of the prepared sample well of the MIC plate and incubated at 37° C. for 16-18 h.
# [2] = system: Staphylococcus aureus ATCC 43300; experiment: MIC by trace broth dilution method; assay type: cell-based; conditions: 16-18 h
# Experimental: as §1
# [3] = system: Staphylococcus aureus CVCC 546; experiment: MIC by trace broth dilution method; assay type: cell-based; conditions: 16-18 h
# Experimental: as §1
# [4] = system: Streptococcus pneumoniae CVCC 2350; experiment: MIC by trace broth dilution method; assay type: cell-based
# Experimental: as §1
# [5] = system: Streptococcus suis CVCC 3928; experiment: MIC by trace broth dilution method; assay type: cell-based; conditions: 16-18 h
# Experimental: as §1
# Gram-positive bacteria = experiment: Antimicrobial activity (MIC) summary over tested strains; assay type: cell-based; conditions: range over the tested Gram-positive strains
# Experimental: as §1
# mice red blood cells = experiment: Hemolysis assay; assay type: cell-based, ICR mice; conditions: concentration of 1-256 μg/mL; 37° C., 1 h
# Experimental: The freeze-dried powder of antimicrobial peptide ID13 obtained in Example 6 was used for the test. The antimicrobial peptide ID13 was dissolved in sterile physiological saline to prepare a stock solution of a concentration of 512 μg/mL, and diluted with a 2-fold ratio to a final concentration of 2 μg/mL. The blood from the eyeballs of 6-week-old SPF female ICR mice was taken and collected with a heparin sodium anticoagulation tube. The collected blood was centrifuged at 4° C., 1500 rpm for 10 min. The red blood cells were washed three times with 10 mM PBS (pH 7.3) until the supernatant was colorless and transparent, and an 8% red blood cell suspension was prepared. 100 μL of the red blood cell suspension and antimicrobial peptide ID13 solution were added to 96-well plate, incubated at 37° C. for 1 h, and centrifuged at 1500 rpm for 5 min. The resulted supernatant was transferred to ELISA plate to detect the UV absorbance at 540 nm. Values of 0% and 100% hemolysis control tests were set up with physiological saline and 0.1% TRITON X-100 detergent, respectively. The formula for calculating the degree of hemolysis was as follows (Jung, Park, etc., 2007): Hemolysis (%)=[(Abs540 nm antimicrobial peptide ID13—Abs540 nm physiological saline)/(Abs540 nm 0.1% TRITON X-100 detergent—Abs540 nm physiological saline)]×100%.
# RAW264.7 cells = experiment: Cytotoxicity assay (MTT); assay type: cell-based; conditions: 256 μg/mL, 24 hours incubation
# Experimental: The RAW264.7 cells were cultured in DMEM complete medium with 37° C., 5% CO2 and saturated humidity conditions. The cells were pipetted and re-suspended in DMEM complete medium. Then, the cells were seeded in a 96-well plate at a density of 2.5×10^5 cells/mL, 100 μL per well, and 3 replicates were set. After 24 h, the medium was removed, and 100 μL of 1, 2, 4, 8, 16, 32, 64, 128, and 256 μg/mL ID13 were added to each well according to a concentration gradient. Control wells were added with the same amount of PBS solution. After 24 hours incubation, the medium was removed; the wells were washed twice with PBS, and 100 μL of MTT at a concentration of 5 mg/mL was added to each well (which were operated in dark). The 96-well plate was moved to an incubator and continued to be incubated for 4 h. After discarding the MTT solution, 150 μL DMSO was added into each well, and then the plate was cultured with shaking for 10 minutes. When crystals at the well bottom were completely dissolved, the absorbance values were measured at a wavelength of 570 nm. The cell survival rate was calculated according to the following formula: survival rate (%)=OD value of the treatment group/OD value of the control group×100% (Jiao et al., 2015).
# MRSA ATCC 43300 = conditions: cited from earlier work
structure (smiles),measurement,setting,value
CN[C@H](CC(C)C)C(=O)N[C@H]1C(=O)N[C@@H](CC(N)=O)C(=O)N[C@H]2C(=O)N[C@H]3C(=O)N[C@H](C(=O)N[C@H](C(=O)O)c4cc(O)cc(O)c4-c4cc3ccc4O)[C@H](O)c3ccc(c(Cl)c3)Oc3cc2cc(c3O[C@@H]2O[C@H](CO)[C@@H](O)[C@H](O)[C@H]2O[C@H]2C[C@](C)(N)[C@H](O)[C@H](C)O2)Oc2ccc(cc2Cl)[C@H]1O [Vancomycin],MIC,"[1]; Staphylococcus epidermidis, ATCC12228",0.67 µM and 1 µg/mL
same,MIC,"[2]; ATCC43300, 37° C., read-out: MIC",0.67 µM and 1 µg/mL
same,MIC,"[3]; CVCC546, 37° C., read-out: MIC",0.67 µM and 1 µg/mL
same,MIC,"[4]; Streptococcus pneumoniae, CVCC2350",0.34 µM and 0.5 µg/mL
same,MIC,"[5]; CVCC3928, 37° C., read-out: MIC",0.17 µM and 0.25 µg/mL
"CC[C@H](C)[C@@H]1NC(=O)[C@@H]2CSSC[C@@H](C(=O)N[C@@H](CCCNC(=N)N)C(=O)N[C@@H](CCCCN)C(=O)O)NC(=O)[C@H](CC(N)=O)NC(=O)[C@@H]3CSSC[C@H](NC(=O)[C@H](C)NC(=O)[C@H](C)NC(=O)[C@H](Cc4c[nH]cn4)NC(=O)CNC(=O)[C@H](C(C)C)NC(=O)[C@H](CCCCN)NC(=O)[C@H](Cc4ccccc4)NC(=O)[C@@H]4CCCN4C(=O)[C@H](CO)NC(=O)[C@H](CC(C)C)NC(=O)[C@H](CC(C)C)NC(=O)[C@H](CC(=O)O)NC(=O)[C@@H](NC(=O)[C@@H](NC(=O)[C@H](C)N)[C@@H](C)O)CSSC[C@H](NC(=O)[C@H](Cc4c[nH]c5ccccc45)NC(=O)CNC(=O)CNC(=O)[C@H](CCCNC(=N)N)NC(=O)[C@H](CCCCN)NC(=O)CNC(=O)[C@H](CCCNC(=N)N)NC(=O)[C@H](C)NC1=O)C(=O)N[C@@H](CC(=O)O)C(=O)NCC(=O)N[C@@H](CCCNC(=N)N)C(=O)N[C@@H](C)C(=O)N[C@@H](C(C)C)C(=O)N3)C(=O)N[C@@H](C)C(=O)N[C@@H](C)C(=O)N[C@@H](Cc1c[nH]cn1)C(=O)N2 [ID13] (H-ATCDLLSPFKVGHAACAAHCIARGKRGGWCDGRAVCNCRK-OH; disulfide 3-30, 16-36, 20-38 (inferred); N-terminus and C-terminus assumed)",MIC,"[1]; Staphylococcus Epidermidis ATCC 12228, 37° C., 16-18 h",1.91 μM and 8 μg/mL
same,MIC,[2]; 37° C.,4 µg/mL
same,MIC,"[2]; 37° C., read-out: MIC",0.95 µM
same,MIC,[3]; 37° C.,4 µg/mL
same,MIC,"[3]; 37° C., read-out: MIC",0.95 µM
same,MIC,"[4]; Streptococcus pneumoniae CVCC 2350, 37° C., 16-18 h",0.95 μM and 4 μg/mL
same,MIC,[5]; 37° C.,4 µg/mL
same,MIC,"[5]; 37° C., read-out: MIC",0.95 µM
same,antimicrobial activity against Gram-positive bacteria (MIC range),Gram-positive bacteria,0.95 to 1.91 µM
same,hemolysis to mice red blood cells,mice red blood cells,little hemolysis
same,cell survival rate,RAW264.7 cells,72%
"CC[C@H](C)[C@@H]1NC(=O)[C@@H]2CSSC[C@@H](C(=O)N[C@@H](CCCNC(=N)N)C(=O)N[C@@H](CCCCN)C(=O)O)NC(=O)[C@H](CC(N)=O)NC(=O)[C@@H]3CSSC[C@H](NC(=O)[C@H](C)NC(=O)[C@H](C)NC(=O)[C@H](Cc4c[nH]cn4)NC(=O)CNC(=O)[C@H](C(C)C)NC(=O)[C@H](CCCCN)NC(=O)[C@H](Cc4ccccc4)NC(=O)[C@@H]4CCCN4C(=O)[C@H](CO)NC(=O)[C@H](CC(C)C)NC(=O)[C@H](CC(C)C)NC(=O)[C@H](CC(=O)O)NC(=O)[C@@H](NC(=O)[C@@H](NC(=O)[C@H](C)N)[C@@H](C)O)CSSC[C@H](NC(=O)[C@H](Cc4c[nH]c5ccccc45)NC(=O)CNC(=O)CNC(=O)[C@H](CCCNC(=N)N)NC(=O)[C@H](CCCCN)NC(=O)CNC(=O)[C@H](CCCNC(=N)N)NC(=O)[C@H](C)NC1=O)C(=O)N[C@@H](CC(=O)O)C(=O)N[C@@H](CCCCN)C(=O)N[C@@H](CCCNC(=N)N)C(=O)N[C@@H](C)C(=O)N[C@@H](C(C)C)C(=O)N3)C(=O)N[C@@H](C)C(=O)N[C@@H](C)C(=O)N[C@@H](Cc1c[nH]cn1)C(=O)N2 [DLP4] (H-ATCDLLSPFKVGHAACAAHCIARGKRGGWCDKRAVCNCRK-OH; disulfide 3-30, 16-36, 20-38; N-terminus and C-terminus assumed)",MIC,[2]; 37° C.,16 µg/mL
same,MIC,[3]; 37° C.,16 µg/mL
same,MIC,[5]; 37° C.,16 µg/mL
same,drug tolerance such as increased MIC,MRSA ATCC 43300; MRSA ATCC 43300 continuously passaged for 30 days under the effective dose,no drug tolerance
CO/N=C(\C(=O)N[C@@H]1C(=O)N2C(C(=O)O)=C(CSc3nc(=O)c(=O)[nH]n3C)CS[C@H]12)c1csc(N)n1 [ceftriaxone],increase of MIC value,MRSA ATCC 43300; MRSA ATCC 43300 continuously passaged for 30 days,256 times
